Several values for one entry are separate records, joined by “and”; a condition that tells them apart may be missing. Equal entries are not always repeated. Where two headings read alike, the source gives them in different places. Marks after values point to notes of the source that are not given here.
Columns and labels:
[1] = tested on: NIBRG-14 (H5N1) influenza A virus; design: species or system mice; settings: mouse, in vivo
[2] = target: NA from influenza virus A/Hanoi/30408/2005 (H5N1) (Influenza A virus (A/Hanoi/30408/2005(H5N1)), UniProt Q3C1C4); assay: biochemical
[3] = tested on: flu (A/WSN/1933) infection, H1N1; assay: microbe, parasite or virus in culture; format: cell-based, influenza A/WSN/1933 (H1N1)
[4] = in vitro; settings: dog
[5] = tested on: A/WSN/33 (H1N1) influenza virus; settings: mouse, in vivo
[6] = tested on: influenza A [A/WSN/33 (H1N1)] virus; design: species or system mice; settings: mouse, in vivo; for efficacy at lower concentrations in comparison to compounds 3 and 13b: 0.01 mg/kg/day
[7] = target: Neuraminidase (NA) from influenza virus A/WSN/1933 (H1N1) (Influenza A virus, UniProt P03470); assay: biochemical; format: biochemical
Chain of Neuraminidase (NA) from influenza virus A/WSN/1933 (H1N1) (P03470 whole entry, looked up): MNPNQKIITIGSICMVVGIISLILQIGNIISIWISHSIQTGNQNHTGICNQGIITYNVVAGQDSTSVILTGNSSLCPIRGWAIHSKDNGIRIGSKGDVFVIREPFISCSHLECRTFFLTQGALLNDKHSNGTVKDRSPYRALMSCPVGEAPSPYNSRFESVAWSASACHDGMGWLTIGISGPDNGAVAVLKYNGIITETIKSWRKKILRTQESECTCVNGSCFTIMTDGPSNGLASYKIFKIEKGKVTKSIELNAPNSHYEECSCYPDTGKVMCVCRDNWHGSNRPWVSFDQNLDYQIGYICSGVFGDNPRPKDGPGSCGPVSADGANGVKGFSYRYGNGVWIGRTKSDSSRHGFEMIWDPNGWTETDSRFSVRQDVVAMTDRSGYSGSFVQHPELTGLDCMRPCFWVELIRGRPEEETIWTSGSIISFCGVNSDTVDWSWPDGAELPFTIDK

CCOC(=O)C1=C[C@@H](OC(CC)CC)[C@H](NC(C)=O)[C@@H](N)C1 [Compound 1, Ethyl (3R,4R,5S)-4-acetamido-5-amino-3-(1-ethylpropoxy)-1-cyclohexene-1-carboxylate phosphate, reference compound]
% Survivors, day 7 ([1]; phosphate): 10 (100)^b % and 0 (40)^b % and 0 (0)^b %
% Survivors, day 14 ([1]; phosphate): 10 (100)^b % and 0 (40)^b % and 0 (0)^b %
Mean day to death ([1]; phosphate): 9.4 days and 7.6 days and 5.3 days

CCC(CC)O[C@@H]1C=C(C(=O)O)C[C@H](N)[C@H]1NC(C)=O [Compound 2, (3R,4R,5S)-4-Acetamido-5-amino-3-(1-ethylpropoxy)-1-cyclohexene-1-carboxylic acid, reference compound]
IC50 [2]: 62.9 nM
EC50 ([3]; read-out: EC50): 31.3 nM
CC50 [4]: > 100000 nM

CCC(CC)O[C@@H]1C=C(P(=O)(O)O)C[C@H](N)[C@H]1NC(C)=O [Compound 3, Ammonium (3R,4R,5S)-4-acetamido-5-amino-3-(1-ethylpropoxy)-1-cyclohexene-1-phosphonate]
IC50 [2]: 13.3 nM
efficacy compared with Tamiflu by survival rate and mean survival time of mice [5]: more effective than Tamiflu
oral bioavailability in protecting mice against lethal challenge ([5]; po): orally bioavailable
% Survivors, day 7 [1]: 10 (100)^b % and 0 (60)^b % and 0 (0)^b %
% Survivors, day 14 [1]: 10 (100)^b % and 0 (60)^b % and 0 (0)^b %
Mean day to death [1]: 9.1 days and 8.7 days and 5.6 days and 5.7 days
efficacy compared with Tamiflu by survival rate and mean survival time of mice [1]: at least equally effective
Mean day to death [6]: 8.2 days and 5.9 days and 5.3 days
EC50 ([3]; Influenza A virus, MDCK): 4.67 nM
CC50 [4]: 74000 nM

CCOP(=O)(OCC)C1=C[C@@H](OC(CC)CC)[C@H](NC(C)=O)[C@@H](N)C1 [Compound 3b, Diethyl (3R,4R,5S)-4-acetamido-5-amino-3-(1-ethylpropoxy)-1-cyclohexene-1-phosphonate]
% Survivors, day 7 [5]: 0 (100)^b % and 0 (60)^b % and 0 (30)^b %
% Survivors, day 14 [5]: 0 (100)^b % and 0 (60)^b % and 0 (30)^b %
% Survivors, day 7 [1]: 0 (100)^b % and 0 (20)^b % and 0 (0)^b %
% Survivors, day 14 [1]: 0 (100)^b % and 0 (20)^b % and 0 (0)^b %
Mean day to death [1]: 9.5 days and 7.3 days and 5.3 days and 4.9 days

CCOP(=O)(O)C1=C[C@@H](OC(CC)CC)[C@H](NC(C)=O)[C@@H](N)C1.N [Compound 3c, Ethyl (3R,4R,5S)-4-acetamido-5-amino-3-(1-ethylpropoxy)-1-cyclohexene-1-phosphonate ammonium salt]
survival rate and body weight in comparison to compounds 3 and 13b [6]: improved survival rates and improved weight retention
efficacy at lower concentrations in comparison to compounds 3 and 13b [6]: equally ineffective
Mean day to death ([6]; ammonium salt): 9.3 days and 6.2 days and 4.8 days

CCC(CC)O[C@@H]1C=C(C(=O)O)C[C@H](NC(=N)N)[C@H]1NC(C)=O [Compound 13a, (3R,4R,5S)-4-acetamido-5-guanidinyl-3-(1-ethylpropoxy)-1-cyclohexene-1-carboxylic acid, reference compound]
IC50 [2]: 160 nM
EC50 ([3]; Influenza A virus, MDCK): 5.6 nM
CC50 [4]: > 100000 nM

CCC(CC)O[C@@H]1C=C(P(=O)(O)O)C[C@H](NC(=N)N)[C@H]1NC(C)=O [Compound 13b, Ammonium (3R,4R,5S)-4-acetamido-5-guanidinyl-3-(1-ethylpropoxy)-1-cyclohexene-1-phosphonate]
IC50 [2]: 1.82 nM
EC50 ([3]; Influenza A virus, MDCK): 0.09 nM
CC50 [4]: ~5000 nM

CCOP(=O)(O)C1=C[C@@H](OC(CC)CC)[C@H](NC(C)=O)[C@@H](NC(=N)N)C1.N [Compound 13c, Ethyl (3R,4R,5S)-4-acetamido-5-guanidinyl-3-(1-ethylpropoxy)-1-cyclohexene-1-phosphonate ammonium salt]
survival rate and body weight in comparison to compounds 3 and 13b [6]: improved survival rates and improved weight retention
efficacy at lower concentrations in comparison to compounds 3 and 13b [6]: equally ineffective
Mean day to death ([6]; ammonium salt): 6.8 days and 5.7 days

CC(=O)N[C@H]1[C@H](O)C=C(C(=O)O)C[C@@H]1N [Compound 14a, (3R,4R,5S)-4-Acetamido-5-amino-3-hydroxy-1-cyclohexene-1-carboxylic acid, reference compound]
IC50 [7]: 36700 nM
NAI activity in comparison with 2 and 3 [7]: inferior NAI activity

CC(=O)N[C@H]1[C@H](O)C=C(P(=O)(O)O)C[C@@H]1N [Compound 14b, Ammonium (3R,4R,5S)-4-acetamido-5-amino-3-hydroxy-1-cyclohexene-1-phosphonate]
IC50 [7]: 3200 nM
NAI activity in comparison with 2 and 3 [7]: inferior NAI activity

From patent US7888337B2 (priority 2007, dated 2011)
